Where two headings read alike, the source gives them in different places.
Legend:
[1] = tested on: purified bovine brain tubulin; assay: Tubulin polymerization assay (light scattering, BK006 kit); assay type: biochemical; details: compound at 10 μM; for Fold Reduction in Vmax: relative to vehicle
Outline: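 Purified bovine brain tubulin (3 mg/mL) in PIPES 80 mM pH 6.9, EGTA, MgCl2, 1 mM GTP, 10% glycerol incubated at 37 °C with compound at 10 µM or vehicle (1% DMSO or EtOH). Assembly followed turbidimetrically at 340 nm; values are means of two independent assays.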

CCRF-CEM = assay: NCI-60 SRB screen, leukemia; assay type: cell-based; details: Homo sapiens, 48 h
HL-60(TB) = assay: NCI-60 SRB screen, leukemia; assay type: cell-based, human; details: Homo sapiens
K-562 = assay: NCI-60 SRB screen, leukemia; assay type: cell-based, human; details: Homo sapiens, K562, 48 h
SR = assay: NCI-60 SRB screen, leukemia; assay type: cell-based, human; details: Homo sapiens, 48 h
A549/ATCC = assay: NCI-60 SRB screen, non-small cell lung cancer; assay type: cell-based, human; details: Homo sapiens
HOP-92 = assay: NCI-60 SRB screen, non-small cell lung cancer; assay type: cell-based, human; details: Homo sapiens
NCI-H23 = assay: NCI-60 SRB screen, non-small cell lung cancer; assay type: cell-based, human; details: Homo sapiens
COLO 205 = assay: NCI-60 SRB screen, colon cancer; assay type: cell-based, human; details: Homo sapiens
HCT-15 = assay: NCI-60 SRB screen, colon cancer; assay type: cell-based, human; details: Homo sapiens
HT29 = assay: NCI-60 SRB screen, colon cancer; assay type: cell-based, human; details: Homo sapiens
SF539 = assay: NCI-60 SRB screen, CNS cancer; assay type: cell-based, human; details: Homo sapiens
SNB-19 = assay: NCI-60 SRB screen, CNS cancer; assay type: cell-based, human; details: Homo sapiens
SNB-75 = assay: NCI-60 SRB screen, CNS cancer; assay type: cell-based, human; details: Homo sapiens
DU-145 = assay: NCI-60 SRB screen, prostate cancer; assay type: cell-based, human; details: Homo sapiens
LOX IMVI = assay: NCI-60 SRB screen, melanoma; assay type: cell-based, human; details: Homo sapiens, 48 h
M14 = assay: NCI-60 SRB screen, melanoma; assay type: cell-based, human; details: Homo sapiens
MDA-MB-435 = assay: NCI-60 SRB screen, melanoma; assay type: cell-based, human; details: Homo sapiens
SK-MEL-2 = assay: NCI-60 SRB screen, melanoma; assay type: cell-based, human; details: Homo sapiens; SK-MEL-2; five dose 0.01–100 µM, 48 h; read-out: GI50
UACC-62 = assay: NCI-60 SRB screen, melanoma; assay type: cell-based, human; details: Homo sapiens
IGROV1 = assay: NCI-60 SRB screen, ovarian cancer; assay type: cell-based, human; details: Homo sapiens
OVCAR-4 = assay: NCI-60 SRB screen, ovarian cancer; assay type: cell-based, human; details: Homo sapiens
OVCAR-8 = assay: NCI-60 SRB screen, ovarian cancer; assay type: cell-based, human; details: Homo sapiens
A498 = assay: NCI-60 SRB screen, renal cancer; assay type: cell-based, human; details: Homo sapiens
RXF 393 = assay: NCI-60 SRB screen, renal cancer; assay type: cell-based, human; details: Homo sapiens
UO-31 = assay: NCI-60 SRB screen, renal cancer; assay type: cell-based, human; details: Homo sapiens
BT-549 = assay: NCI-60 SRB screen, breast cancer; assay type: cell-based, human; details: Homo sapiens
T-47D = assay: NCI-60 SRB screen, breast cancer; assay type: cell-based, human; details: Homo sapiens, T47D, 48 h
NCI-H332M = assay: NCI-60 SRB screen, non-small cell lung cancer; assay type: cell-based; details: Homo sapiens, 48 h
[2] = five dose 0.01–100 µM, read-out: GI50
[3] = HL-60(TB), five dose 0.01–100 µM, 48 h
[4] = A549/ATCC, five dose 0.01–100 µM, 48 h, read-out: GI50
[5] = HOP-92, five dose 0.01–100 µM, 48 h, read-out: GI50
[6] = NCI-H23, five dose 0.01–100 µM, 48 h, read-out: GI50
[7] = COLO 205, five dose 0.01–100 µM, 48 h, read-out: GI50
[8] = HCT-15, five dose 0.01–100 µM, 48 h, read-out: GI50
[9] = HT-29, HT29, five dose 0.01–100 µM, 48 h, read-out: GI50
[10] = SF-539, SF539, five dose 0.01–100 µM, 48 h, read-out: GI50
[11] = SNB-19, five dose 0.01–100 µM, 48 h, read-out: GI50
[12] = SNB-75, five dose 0.01–100 µM, 48 h, read-out: GI50
[13] = DU-145, five dose 0.01–100 µM, 48 h, read-out: GI50
[14] = M14, five dose 0.01–100 µM, 48 h, read-out: GI50
[15] = MDA-MB-435, five dose 0.01–100 µM, 48 h, read-out: GI50
[16] = UACC-62, five dose 0.01–100 µM, 48 h, read-out: GI50
[17] = IGROV-1, IGROV1, five dose 0.01–100 µM, 48 h, read-out: GI50
[18] = OVCAR-4, five dose 0.01–100 µM, 48 h, read-out: GI50
[19] = OVCAR-8, five dose 0.01–100 µM, 48 h, read-out: GI50
[20] = A498, five dose 0.01–100 µM, 48 h, read-out: GI50
[21] = RXF 393, five dose 0.01–100 µM, 48 h, read-out: GI50
[22] = UO-31, five dose 0.01–100 µM, 48 h, read-out: GI50
[23] = BT-549, five dose 0.01–100 µM, 48 h, read-out: GI50
[24] = T-47D, five dose 0.01–100 µM, read-out: GI50

C=C(C)C1C(=O)N(c2cc(OC)c(OC)c(OC)c2)C1c1ccc(OC)cc1 (stereo not shown) [9h, 4-(4-Methoxyphenyl)-1-(3,4,5-trimethoxyphenyl)-3-(prop-1-en-2-yl)azetidin-2-one]
Fold Reduction in Vmax [1]: 1.81 | GI50 (CCRF-CEM; [2]): 37.5 nM | GI50 (HL-60(TB); [3]): 33.1 nM | GI50 (HL-60(TB); HL-60, NCI screen): < 34 nM | GI50 (K-562; read-out: GI50): 41 nM | GI50 (SR; [2]): 38.5 nM | GI50 (A549/ATCC; [4]): 40.8 nM | GI50 (HOP-92; [5]): 71.9 nM | GI50 (NCI-H23; [6]): 23.7 nM | GI50 (COLO 205; [7]): 27.1 nM | GI50 (HCT-15; [8]): 40.6 nM | GI50 (HT29; [9]): 35.4 nM | GI50 (SF539; [10]): 35.2 nM | GI50 (SNB-19; [11]): 67.5 nM | GI50 (SNB-75; [12]): 38 nM | GI50 (DU-145; [13]): 29.1 nM | GI50 (LOX IMVI; [2]): 38.8 nM | GI50 (M14; [14]): 221 nM | GI50 (MDA-MB-435; [15]): 294 nM | GI50 (SK-MEL-2): 18600 nM | GI50 (UACC-62; [16]): 39.2 nM | GI50 (IGROV1; [17]): 49.9 nM | GI50 (OVCAR-4; [18]): 39.1 nM | GI50 (OVCAR-8; [19]): 37.3 nM | GI50 (A498; [20]): 24.3 nM | GI50 (RXF 393; [21]): 37.5 nM | GI50 (UO-31; [22]): 505 nM | GI50 (BT-549; [23]): 32.9 nM | GI50 (T-47D; [24]): 26500 nM

C=C(C)C1C(=O)N(c2cc(OC)c(OC)c(OC)c2)C1c1ccc(OC)c(N)c1 (stereo not shown) [9s, 4-(3-Amino-4-methoxyphenyl)-1-(3,4,5-trimethoxyphenyl)-3-(prop-1-en-2-yl)azetidin-2-one]
Fold Reduction in Vmax [1]: 2.66 | GI50 (CCRF-CEM; [2]): 37.7 nM | GI50 (HL-60(TB); [3]): 28.3 nM | GI50 (HL-60(TB); HL-60, NCI screen): < 34 nM | GI50 (K-562; read-out: GI50): 38.3 nM | GI50 (SR; [2]): 30.4 nM | GI50 (A549/ATCC; [4]): 41.5 nM | GI50 (HOP-92; [5]): 43.7 nM | GI50 (NCI-H23; [6]): 25.8 nM | GI50 (NCI-H332M; [2]): 51.1 nM | GI50 (COLO 205; [7]): 19.7 nM | GI50 (HCT-15; [8]): 41.6 nM | GI50 (HT29; [9]): 33.7 nM | IC50 (HT29; HT-29, text of the NCI screening section, read-out: IC50): 34 nM | GI50 (SF539; [10]): 40.2 nM | GI50 (SNB-75; [12]): 60.1 nM | GI50 (DU-145; [13]): 23.6 nM | GI50 (LOX IMVI; [2]): 32.5 nM | GI50 (M14; [14]): 24.8 nM | GI50 (MDA-MB-435; [15]): 26 nM | GI50 (SK-MEL-2): 67.6 nM | GI50 (UACC-62; [16]): 40.6 nM | GI50 (IGROV1; [17]): 35.7 nM | GI50 (OVCAR-4; [18]): 40.7 nM | GI50 (OVCAR-8; [19]): 30.8 nM | GI50 (A498; [20]): 23.4 nM | GI50 (RXF 393; [21]): 39.6 nM | GI50 (UO-31; [22]): 74 nM | GI50 (BT-549; [23]): 37.8 nM | GI50 (T-47D; [24]): > 100000 nM

COc1ccc(C2C(C(C)C)C(=O)N2c2cc(OC)c(OC)c(OC)c2)cc1OP(=O)(O)O (stereo not shown) [15b, 5-(3-Isopropyl-1-(3,4,5-trimethoxyphenyl)-4-oxoazetidin-2-yl)-2-methoxyphenyl dihydrogen phosphate]
GI50 (CCRF-CEM; [2]): 356 nM | GI50 (HL-60(TB); [3]): 305 nM | GI50 (K-562; read-out: GI50): 374 nM | GI50 (SR; [2]): 324 nM | GI50 (A549/ATCC; [4]): 353 nM | GI50 (HOP-92; [5]): 11200 nM | GI50 (NCI-H23; [6]): 368 nM | GI50 (NCI-H332M; […], five dose 0.01–100 µM, read-out: GI50): 592 nM | GI50 (COLO 205; [7]): 1230 nM | GI50 (HCT-15; [8]): 298 nM | GI50 (HT29; [9]): 3470 nM | GI50 (SF539; [10]): 132 nM | GI50 (SNB-19; [11]): 477 nM | GI50 (SNB-75; [12]): 116 nM | GI50 (DU-145; [13]): 368 nM | GI50 (LOX IMVI; [2]): 328 nM | GI50 (M14; [14]): 291 nM | GI50 (MDA-MB-435; [15]): 73.8 nM | GI50 (SK-MEL-2): 500 nM | GI50 (UACC-62; [16]): 131 nM | GI50 (IGROV1; [17]): 434 nM | GI50 (OVCAR-4; [18]): 282 nM | GI50 (OVCAR-8; [19]): 300 nM | GI50 (A498; [20]): 104 nM | GI50 (RXF 393; [21]): 282 nM | GI50 (UO-31; [22]): 538 nM | GI50 (BT-549; [23]): 411 nM | GI50 (T-47D; [24]): > 100000 nM

C=C/C=C/C1C(=O)N(c2cc(OC)c(OC)c(OC)c2)C1c1ccc(OC)c(N)c1 (stereo not shown) [11r, (E)-4-(3-Amino-4-methoxyphenyl)-3-(buta-1,3-dien-1-yl)-1-(3,4,5-trimethoxyphenyl)azetidin-2-one]
Vmax ([1]; 37 °C, 340 nm): 0.0035 mOD/min | Fold Reduction in Vmax [1]: 2.0 | GI50 (CCRF-CEM): 36.5 nM | GI50 (HL-60(TB); [3]): 29.5 nM | GI50 (HL-60(TB); HL-60, NCI screen): < 34 nM | GI50 (K-562): 39.3 nM | GI50 (SR): 33.5 nM | GI50 (A549/ATCC; A549, 48 h): 38 nM | GI50 (HOP-92; HOP-92, 48 h): 25.3 nM | GI50 (NCI-H23; NCI-H23, 48 h): 30 nM | GI50 (NCI-H332M): 57.9 nM | GI50 (COLO 205; COLO 205, 48 h): 23.1 nM | GI50 (HCT-15; HCT-15, 48 h): 37 nM | IC50 (HT29; HT-29): 34 nM | GI50 (HT29; HT-29, 48 h): 33.6 nM | GI50 (SF539; SF-539, 48 h): 39 nM | GI50 (SNB-19; SNB-19, 48 h): 64.9 nM | GI50 (SNB-75; SNB-75, 48 h): 36.8 nM | GI50 (DU-145; DU-145, 48 h): 26 nM | GI50 (LOX IMVI): 34.4 nM | GI50 (M14; M14, 48 h): 22.3 nM | GI50 (MDA-MB-435; MDA-MB-435, 48 h): 22.1 nM | GI50 (UACC-62; UACC-62, 48 h): 39.6 nM | GI50 (IGROV1; IGROV-1, 48 h): 46.6 nM | GI50 (OVCAR-4; OVCAR-4, 48 h): 38.8 nM | GI50 (OVCAR-8; OVCAR-8, 48 h): 38.4 nM | GI50 (A498; A498, 48 h): 22.3 nM | GI50 (RXF 393; RXF 393, 48 h): 45.7 nM | GI50 (UO-31; UO-31, 48 h): 190 nM | GI50 (BT-549; BT-549, 48 h): 25.3 nM | GI50 (T-47D): > 100000 nM
